Source: patent US20060025346A1, “Permeability enhancer” (priority 2004, published 2006)
Entries after “also recorded” stand apart in the source; their conditions may differ.

Columns and labels:
Caco-2 cell monolayer = conditions: literature reports; cited from earlier work

## CCCCCCCCCC(=O)[O-].[Na+] [sodium caprate]
MDCK cells
  permeability enhancing effect on high molecular weight model substance FD-10 (relative Papp): nonspecifically increased the permeability; also recorded: marked permeability enhancing effect
  permeability enhancing effect on low molecular weight model substance Flu (relative Papp): nonspecifically increased the permeability; also recorded: marked permeability enhancing effect
  permeability enhancing effect on low molecular weight model substance LY (relative Papp): nonspecifically increased the permeability; also recorded: marked permeability enhancing effect
Caco-2 cell monolayer
  side effects / cell damage due to relatively strong ability to open tight junctions: risk of cell damage have been observed
